target: T1, mutant CFTR (Homo sapiens, UniProt P13569, DEL508-508); test: Fluorescence (HS-YFP) assay for CFTR activity, corrector assay; type: cell-based; conditions: CFBE41o- and FRT cells with stable expression of mutant CFTR, 24 h compound treatment
T1 construct: expressed in transfected cells
Experimental: Fluorescence Assay for CFTR Activity
Mutant CFTR activity was determined with the functional assay based on the halide-sensitive yellow fluorescent protein, HS-YFP (Galietta et al., FEBS Lett 499: 220-224, 2001). CFBE41o- and FRT cells with stable expression of mutant CFTR and HS-YFP were plated on clear-bottom 96-well black microplates (Code 3603, Corning Life Sciences) at a density of 50,000 cells/well and kept at 37° C. in 5% CO2 for 24 hours. For the corrector assay, cells were treated for further 24 hours with test compounds, vehicle (DMSO), or the positive control VX-809. After treatment, the culture medium was removed and cells in each well were stimulated for 30 min at 37° C. with 60 μL PBS (containing 137 mM NaCl, 2.7 mM KCl, 8.1 mM Na2HPO4, 1.5 mM KH2PO4, 1 mM CaCl2, and 0.5 mM MgCl2) plus forskolin (20 μM) and genistein (50 μM).
For determination of potentiator activity on G551D-CFTR or G1349D-CFTR, cells were directly stimulated with forskolin plus test compound without previous incubation at low temperature. At the time of assay, microplates carrying CFBE41o- or FRT cells were transferred to microplate readers (BMG Labtech) equipped with high-quality excitation (HQ500/20X: 500±10 nm) and emission (HQ535/30M: 535±15 nm) filters for YFP (Chroma Technology). The assay consisted of a continuous 14 s fluorescence reading with 2 s before and 12 s after injection of an iodide-containing solution (165 μL of a modified PBS containing I^− instead of Cl^−; final I^− concentration in the well: 100 mM). Data were normalized to the initial background-subtracted fluorescence. Enhanced CFTR activity, induced by correctors and/or potentiators, results in accelerated I^− influx that in turn causes faster HS-YFP quenching (Pedemonte et al., Mol Pharmacol 68:1736-1746, 2005; Pedemonte et al., J Clin Invest 115:2564-2571, […]). To determine fluorescence quenching rate associated with I^− influx, the […] 10 s of data for each well were fitted with an exponential function to extrapolate initial slope (dF/dt).
EC50 obtained are illustrated in table 1 wherein +: EC50>2 μM; ++: 1.0 μM<EC50<2 μM; +++: EC50<1 μM.

T1 sequence (P13569 with tags, fused parts or gaps DEL508-508): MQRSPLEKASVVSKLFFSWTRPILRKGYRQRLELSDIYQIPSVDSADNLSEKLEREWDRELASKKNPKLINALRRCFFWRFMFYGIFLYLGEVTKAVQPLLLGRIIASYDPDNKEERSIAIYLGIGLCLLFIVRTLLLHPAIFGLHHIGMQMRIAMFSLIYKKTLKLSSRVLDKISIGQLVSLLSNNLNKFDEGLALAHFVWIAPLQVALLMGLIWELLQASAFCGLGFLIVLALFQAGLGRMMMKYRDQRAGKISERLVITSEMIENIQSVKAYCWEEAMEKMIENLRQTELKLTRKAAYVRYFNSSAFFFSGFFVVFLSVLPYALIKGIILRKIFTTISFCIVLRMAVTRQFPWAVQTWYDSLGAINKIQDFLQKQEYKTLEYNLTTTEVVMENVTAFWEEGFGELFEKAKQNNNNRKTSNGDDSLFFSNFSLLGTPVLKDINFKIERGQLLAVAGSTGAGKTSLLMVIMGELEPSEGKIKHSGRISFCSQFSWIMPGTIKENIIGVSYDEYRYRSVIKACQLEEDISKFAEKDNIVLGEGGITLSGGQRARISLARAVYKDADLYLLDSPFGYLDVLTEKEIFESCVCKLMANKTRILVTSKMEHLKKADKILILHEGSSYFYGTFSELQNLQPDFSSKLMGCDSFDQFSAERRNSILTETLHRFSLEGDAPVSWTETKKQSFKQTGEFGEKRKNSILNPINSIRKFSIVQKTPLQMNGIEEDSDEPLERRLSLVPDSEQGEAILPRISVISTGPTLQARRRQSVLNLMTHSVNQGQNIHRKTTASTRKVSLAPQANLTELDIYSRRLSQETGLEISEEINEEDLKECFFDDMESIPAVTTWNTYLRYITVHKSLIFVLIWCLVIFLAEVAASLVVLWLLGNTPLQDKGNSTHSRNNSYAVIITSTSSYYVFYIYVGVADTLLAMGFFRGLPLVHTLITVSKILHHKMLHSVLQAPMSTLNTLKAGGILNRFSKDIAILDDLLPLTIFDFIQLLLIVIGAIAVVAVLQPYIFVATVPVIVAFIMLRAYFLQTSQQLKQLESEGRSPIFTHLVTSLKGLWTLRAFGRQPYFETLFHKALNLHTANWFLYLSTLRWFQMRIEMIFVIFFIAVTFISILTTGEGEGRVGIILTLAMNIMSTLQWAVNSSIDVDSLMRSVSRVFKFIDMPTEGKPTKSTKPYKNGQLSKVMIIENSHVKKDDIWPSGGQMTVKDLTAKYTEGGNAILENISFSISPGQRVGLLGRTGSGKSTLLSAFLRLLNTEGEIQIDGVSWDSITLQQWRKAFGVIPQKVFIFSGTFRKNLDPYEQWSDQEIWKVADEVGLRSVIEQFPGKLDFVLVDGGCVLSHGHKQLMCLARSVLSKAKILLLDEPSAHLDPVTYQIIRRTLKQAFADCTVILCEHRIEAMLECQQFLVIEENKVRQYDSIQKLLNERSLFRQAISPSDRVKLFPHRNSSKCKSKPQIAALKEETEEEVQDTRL

EC50 [nM] | SMILES
< 1000 | CN(C(=O)c1cccc(-n2nc(C(F)(F)F)cc2COc2ccc(C(=O)O)cc2)c1)c1ccc2c(c1)OC(F)(F)O2 [compound 218, 4-[[2-[3-[(2,2-difluoro-1,3-benzodioxol-5-yl)-methyl-carbamoyl]phenyl]-5-(trifluoromethyl)pyrazol-3-yl]methoxy]benzoic acid]
< 1000 | Cc1nc2ccc(N(C)C(=O)c3cccc(-n4nc(C(F)(F)F)c(Cl)c4OCc4ccc(C(=O)OC(C)(C)C)cc4)c3)cc2o1 [compound 190, Tert-butyl 4-[[4-chloro-2-[3-[methyl-(2-methyl-1,3-benzoxazol-6-yl)carbamoyl]phenyl]-5-(trifluoromethyl)pyrazol-3-yl]oxymethyl]benzoate]
> 2000 | Cc1nn(-c2cccc(C(=O)Nc3ccc4c(c3)OCO4)c2)c(C)c1Cl [Int-012, N-(1,3-Benzodioxol-5-yl)-3-(4-chloro-3,5-dimethyl-pyrazol-1-yl)benzamide]
< 1000 | [2H]C([2H])([2H])N(C(=O)c1cccc(-n2nc(C(F)(F)F)c(Cl)c2C2CC2)c1)c1ccc2nc(C)oc2c1 [compound 138, 3-[4-Chloro-5-cyclopropyl-3-(trifluoromethyl)pyrazol-1-yl]-N-(2-methyl-1,3-benzoxazol-6-yl)-N-(trideuteriomethyl)benzamide]
< 1000 | CCOC(=O)c1ccc(OCc2c(Cl)c(C(F)(F)F)nn2-c2cccc(C(=O)N(C)c3ccc4c(c3)OCO4)c2)cc1 [compound 150, Ethyl 4-[[2-[3-[1,3-benzodioxol-5-yl(methyl)carbamoyl]phenyl]-4-chloro-5-(trifluoromethyl)pyrazol-3-yl]methoxy]benzoate]
> 2000 | Cc1nn(-c2cccc(C(=O)Nc3ccc4c(c3)OC(F)(F)O4)c2)c(C)c1Cl [Int-006, 3-(4-Chloro-3,5-dimethyl-pyrazol-1-yl)-N-(2,2-difluoro-1,3-benzodioxol-5-yl)benzamide]
> 2000 | CCOC(=O)c1nn(-c2cccc(C(=O)N(C)c3ccc4c(c3)OCO4)c2)c(C(C)C)c1Cl [compound 086, Ethyl 1-[3-[1,3-benzodioxol-5-yl(methyl)carbamoyl]phenyl]-4-chloro-5-isopropyl-pyrazole-3-carboxylate]
1000 to 2000 | Cc1nn(-c2cccc(C(=O)N(C)c3ccc4c(c3)OCCO4)c2)c(C)c1C(C)(C)C [compound 037, 3-(4-tert-Butyl-3,5-dimethyl-pyrazol-1-yl)-N-(2,3-dihydro-1,4-benzodioxin-6-yl)-N-methyl-benzamide]
< 1000 | Cc1nn(-c2cccc(C(=O)N(C)c3ccc4c(c3)CCC4)c2)c(C)c1Cl [compound 023, 3-(4-chloro-3,5-dimethyl-pyrazol-1-yl)-N-indan-5-yl-N-methyl-benzamide]
< 1000 | Cc1c(C=O)c(C(F)(F)F)nn1-c1cccc(C(=O)N(C)c2ccc3c(c2)OCO3)c1 [compound 186, N-(1,3-Benzodioxol-5-yl)-3-[4-formyl-5-methyl-3-(trifluoromethyl)pyrazol-1-yl]-N-methyl-benzamide]
> 2000 | Cc1nn(-c2cccc(C(=O)N(C)c3ccc4c(c3)OCO4)c2)c(C)c1C(=O)O [compound 048, 1-[3-[1,3-Benzodioxol-5-yl(methyl)carbamoyl]phenyl]-3,5-dimethyl-pyrazole-4-carboxylic acid]
> 2000 | CN(C(=O)c1cccc(-n2cccn2)c1)c1ccc2c(c1)OCCO2 [compound 010, N-(2,3-Dihydro-1,4-benzodioxin-6-yl)-N-methyl-3-pyrazol-1-yl-benzamide]
< 1000 | Cc1c(F)c(C(F)(F)F)nn1-c1cccc(C(=O)N(C)c2ccc3c(c2)OCO3)c1 [compound 126, N-(1,3-Benzodioxol-5-yl)-3-[4-fluoro-5-methyl-3-(trifluoromethyl)pyrazol-1-yl]-N-methyl-benzamide]
< 1000 | CCOc1cc(C(F)(F)F)nn1-c1cccc(C(=O)N(C)c2ccc3c(c2)OCO3)c1 [compound 158, N-(1,3-benzodioxol-5-yl)-3-[5-ethoxy-3-(trifluoromethyl)pyrazol-1-yl]-N-methyl-benzamide]
< 1000 | CC(=O)c1c(Cl)c(C)nn1-c1cccc(C(=O)N(C)c2ccc3c(c2)OCO3)c1 [compound 116, 3-(5-Acetyl-4-chloro-3-methyl-pyrazol-1-yl)-N-(1,3-benzodioxol-5-yl)-N-methyl-benzamide]
< 1000 | Cc1cc(C2CC2)n(-c2cccc(C(=O)N(C)c3ccc4c(c3)OCO4)c2)n1 [compound 097, N-(1,3-Benzodioxol-5-yl)-3-(5-cyclopropyl-3-methyl-pyrazol-1-yl)-N-methyl-benzamide]
< 1000 | Cc1nn(-c2cccc(C(=O)N(C)c3ccc4c(c3)OCO4)c2)c(COc2ccccc2)c1Cl [compound 118, N-(1,3-Benzodioxol-5-yl)-3-[4-chloro-3-methyl-5-(phenoxymethyl)pyrazol-1-yl]-N-methyl-benzamide]
< 1000 | Cc1nc2ccc(N(C)C(=O)c3cccc(-n4nc(C(F)(F)F)c(Cl)c4OCc4ccc(C(=O)O)cc4)c3)cc2o1 [compound 198, 4-[[4-Chloro-2-[3-[methyl-(2-methyl-1,3-benzoxazol-6-yl)carbamoyl]phenyl]-5-(trifluoromethyl)pyrazol-3-yl]oxymethyl]benzoic acid]
< 1000 | Cc1nn(-c2cccc(C(=O)N(C)c3ccc4c(c3)OCO4)c2)c(C(=O)c2ccccc2)c1Cl [compound 119, N-(1,3-benzodioxol-5-yl)-3-(5-benzoyl-4-chloro-3-methyl-pyrazol-1-yl)-N-methyl-benzamide]
> 2000 | Cc1nn(-c2cccc(C(=O)N(C)c3ccc4c(c3)OCO4)n2)c(C)c1Cl [compound 050, N-(1,3-Benzodioxol-5-yl)-6-(4-chloro-3,5-dimethyl-pyrazol-1-yl)-N-methyl-pyridine-2-carboxamide]
< 1000 | Cc1nn(-c2cccc(C(=O)N(C)c3ccc4c(c3)OCO4)c2)c([C@H](O)c2ccccc2)c1Cl (racemic) [compound 109, N-(1,3-benzodioxol-5-yl)-3-[4-chloro-5-[(rac)-hydroxy(phenyl)methyl]-3-methyl-pyrazol-1-yl]-N-methyl-benzamide]
> 2000 | Cc1nn(-c2cccc(C(=O)N(C)c3ccc4c(c3)OCO4)c2)c(C)c1C#N [compound 081, N-(1,3-Benzodioxol-5-yl)-3-(4-cyano-3,5-dimethyl-pyrazol-1-yl)-N-methyl-benzamide]
> 2000 | Cc1nn(-c2cccc(C(=O)N(C)c3ccccc3)c2)c(C)c1Cl [compound 007, 3-(4-Chloro-3,5-dimethyl-pyrazol-1-yl)-N-methyl-N-phenyl-benzamide]
< 1000 | COC(=O)c1ccc(COc2c(Cl)c(C(F)(F)F)nn2-c2cccc(C(=O)N(C)c3ccc4c(c3)OCO4)c2)cc1 [compound 155, Methyl 4-[[2-[3-[1,3-benzodioxol-5-yl(methyl)carbamoyl]phenyl]-4-chloro-5-(trifluoromethyl)pyrazol-3-yl]oxymethyl]benzoate]
> 2000 | Cc1nn(-c2cccc(C(=O)Nc3ccc4c(c3)NCCO4)c2)c(C)c1Cl [Int-016, 3-(4-Chloro-3,5-dimethyl-pyrazol-1-yl)-N-(3,4-dihydro-2H-1,4-benzoxazin-6-yl)benzamide]
1000 to 2000 | Cc1nn(-c2cccc(C(=O)N(C)c3ccc4oc(C5CC5)nc4c3)c2)c(C)c1Cl [compound 055, 3-(4-Chloro-3,5-dimethyl-pyrazol-1-yl)-N-(2-cyclopropyl-1,3-benzoxazol-5-yl)-N-methyl-benzamide]
< 1000 | Cc1nc2cc(F)c(N(C)C(=O)c3cccc(-n4nc(C(F)(F)F)c(Cl)c4OCc4ccc(C(=O)OC(C)(C)C)cc4)c3)cc2o1 [compound 202, Tert-butyl 4-[[4-chloro-2-[3-[(5-fluoro-2-methyl-1,3-benzoxazol-6-yl)-methyl-carbamoyl]phenyl]-5-(trifluoromethyl)pyrazol-3-yl]oxymethyl]benzoate]
< 1000 | CC(C)Oc1c(Cl)c(C(F)(F)F)nn1-c1cccc(C(=O)N(C)c2ccc3c(c2)OCO3)c1 [compound 142, N-(1,3-Benzodioxol-5-yl)-3-[4-chloro-5-isopropoxy-3-(trifluoromethyl)pyrazol-1-yl]-N-methyl-benzamide]
> 2000 | Cc1nn(-c2cccc(S(=O)(=O)N(C)c3ccc4c(c3)OC(F)(F)O4)c2)c(C)c1Cl [compound 035, 3-(4-Chloro-3,5-dimethyl-pyrazol-1-yl)-N-(2,2-difluoro-1,3-benzodioxol-5-yl)-N-methyl-benzenesulfonamide]
